The results in this text go back to US5869602A, “Peptide derivatives” (Novo Nordisk A/S, priority 1995, dated 1999).

Non-standard residues stand in square brackets, D forms with d. Residues, ends and D or L forms follow the SMILES beside them. *: point of attachment. Myristoyl = CCCCCCCCCCCCCC(=O)*; Nle = CCCC[C@H](N)C(=O)O; For = O=C*

Data set [1] can be described thus: Determination of lipophilicity relative to human insulin (k'rel) by RP-HPLC. Type of data set: physicochemical. Conditions: pH 7.3. The procedure:
The lipophilicity of peptides and peptide derivatives relative to human insulin, k'rel, was measured on a LiChrosorb RP18 (5 μm, 4×250 mm) HPLC column by isocratic elution at 40° C. using mixtures of A) 0.1M sodium phosphate buffer, pH 7.3, containing 10% acetonitrile, and B) 50% acetonitrile in water as eluents. The elution was monitored by following the UV absorption of the eluate at 214 nm. Void time, t0, was found by injecting 0.1 mM sodium nitrate. Retention time for human insulin. tinsulin, was adjusted to at least 2t0 by varying the ratio between the A and B solutions. k'rel =(tderivate -t0)/(tinsulin -t0).

The test system of data set [2] is rabbits. Description: Blood glucose in rabbits pre-treated with Insulin Actrapid, after SC injection. Format: in vivo.
Method: The resulting solution was sterilized by filtration and transferred to a vial.
Blood was sampled at times: -60, 0, 15, 30, 60, 120, 180 and 240 min, and the glucose concentration determined by the hexokinase method.
The mark [3] stands for this setting: LiChrosorb RP18 HPLC, isocratic elution, 40° C.

`CCCCCCCCCCCCCC(=O)NCCCC[C@H](NC(=O)[C@H](Cc1ccc(O)cc1)NC(=O)[C@H](CCCC)NC(=O)[C@H](Cc1ccccc1)NC(=O)[C@H](CC(C)C)NC(=O)[C@H](CCCC)NC=O)C(=O)O` [Example 1, For-Nle-Leu-Phe-Nle-Tyr-Lys(N^ε -tetradecanoyl)-OH] (For-[Nle]LF[Nle]YK(Myristoyl)-OH): the “lipophilicity relative to human insulin, k'rel” value in data set [1] (setting [3]) was 8.2×10^3.
As for `CCCCCCCCCCCCCC(=O)NCCCC[C@H](NC(=O)[C@H](Cc1ccc(O)cc1)NC(=O)[C@@H](NC(=O)[C@H](Cc1ccccc1)NC(=O)[C@H](Cc1ccccc1)NC(=O)[C@H](Cc1c[nH]cn1)NC(=O)[C@H](Cc1ccccc1)NC(=O)[C@@H]1CCCN1C(=O)[C@H](Cc1c[nH]cn1)NC(=O)[C@@H]1CCCN1)C(C)C)C(=O)O` [Example 3] (H-PHPFHFFVYK(Myristoyl)-OH), the “lipophilicity relative to human insulin, k'rel” value in data set [1] (setting [3]) is 5.3×10^3.
Take `CCCC[C@H](NC=O)C(=O)N[C@@H](CC(C)C)C(=O)N[C@@H](Cc1ccccc1)C(=O)N[C@@H](CCCC)C(=O)N[C@@H](Cc1ccc(O)cc1)C(=O)N[C@@H](CCCCN)C(=O)O` [For-Nle-Leu-Phe-Nle-Tyr-Lys-OH] (HELM PEPTIDE1{[O=C[*:2]].[Nle].L.F.[Nle].Y.K}$$$$V2.0): the “lipophilicity relative to human insulin, k'rel” value in data set [1] is recorded as 2.3.
Take `CC(C)C[C@H](NC(=O)[C@H](Cc1ccccc1)NC(=O)CNC(=O)[C@@H](C)NC(=O)[C@@H](N)Cc1ccc(O)cc1)C(=O)N[C@@H](CCCCN)C(=O)O` [H-Tyr-D-Ala-Gly-Phe-Leu-Lys-OH] (HELM PEPTIDE1{Y.[dA].G.F.L.K}$$$$V2.0): the “lipophilicity relative to human insulin, k'rel” value in data set [1] (setting [3]) was 3.0×10^-3.
On the same count and under the same terms, to H-PHPFHFFVYK-OH belongs 2.3×10^2.
Take “Lys^30 (Nε-decanoyl) glucagon [Example 6]”: the blood glucose concentration in data set [2] (0 min (time of SC injection of test substance)) was determined as 51 mg glucose/100 ml; in data set [2] (15 min after SC injection) it was 79 mg glucose/100 ml; in data set [2] (30 min after SC injection), 93 mg glucose/100 ml; in data set [2] (60 min after SC injection) it was 114 mg glucose/100 ml; in data set [2] (120 min after SC injection), 112 mg glucose/100 ml; in data set [2] (180 min after SC injection) it was 116 mg glucose/100 ml. In addition, the blood glucose concentration turned out to be 110 mg glucose/100 ml in data set [2] (240 min after SC injection) and 94 mg glucose/100 ml in data set [2] (-60 min (time of 2 IU Insulin Actrapid, before test substance)). In data set [2] (SC, conclusion from the table), the “blood glucose raising effect compared with glucagon” value is recorded as “prolonged action”.
